Strand notation (5' to 3'): a small letter for the sugar, then the base; units joined by * are phosphorothioate-linked, units joined directly phosphodiester-linked; [ ] holds rarer units or linkages, { } end groups; capitals alone tell only the bases. e = 2'-O-(2-methoxyethyl) (MOE); [5mC] = 5-methylcytosine; d = 2'-deoxy (DNA)
What was measured:
human CETP mRNA [1] = assay: Antisense inhibition of human CETP mRNA in SW872 liposarcoma cells (Example 1); assay type: cell-based; settings: 150 nM antisense oligonucleotide, lipofectin, ~24 hours, relative to untreated control cells
Description: Antisense oligonucleotides targeted to a CETP nucleic acid were tested for their effect on CETP mRNA transcript in vitro. Cultured SW872 liposarcoma cells at a density of 50,000 cells per well in a 24-well plate were transfected using lipofectin reagent with 150 nM antisense oligonucleotide. After approximately 24 hours, RNA was isolated from the cells and CETP mRNA levels were measured by quantitative real-time PCR. A human primer probe set (forward sequence […], designated herein as SEQ ID NO: 38; reverse sequence GGCTCACGCCTTTGCTGTT, designated herein as SEQ ID NO: 39; probe sequence […], designated herein as SEQ ID NO: 40) was used to quantitate CETP mRNA. CETP mRNA transcript levels were adjusted according to total RNA content, as measured by the house-keeping gene, GAPDH mRNA levels. GAPDH was measured using a primer probe set with the sequence as set forth in SEQ ID NOs: 10, 11, 13. Results are presented as percent inhibition of CETP, relative to untreated control cells.
The antisense oligonucleotides in Table 3 are 5-10-5 gapmers, where the gap segment comprises ten 2′-deoxynucleosides and each wing segment comprises five 2′-MOE nucleosides. Each nucleotide in the 5′ wing segment and each nucleotide in the 3′ wing segment has a 2′-MOE modification. The internucleoside linkages throughout each gapmer are phosphorothioate (P═S) linkages. All cytosine residues throughout each gapmer are 5-methylcytosines. ‘Target start site’ indicates the 5′-most nucleotide to which the antisense oligonucleotide is targeted. ‘Target stop site’ indicates the 3′-most nucleotide to which the antisense oligonucleotide is targeted. All the antisense oligonucleotides listed in Table 3 target human CETP mRNA, designated herein as SEQ ID NO: 1 (GENBANK Accession No. M30185.1).

human CETP mRNA [2] = assay: Antisense inhibition of human CETP mRNA in primary hepatocytes from huCETP transgenic mice (Example 4); assay type: cell-based, mouse; settings: cytofectin, ~24 hours
Description: Transgenic mice expressing human CETP, controlled by its natural flanking region, increase expression of this gene in response to hypercholesterolemia (Jiang, X. C. et al., J. Clin. Invest. 1992. 90: 1290-1295). These mice were utilized for the following studies. Antisense oligonucleotides targeted to a CETP nucleic acid and described in Example 1 were tested for their effect on CETP mRNA transcript in vitro. Cultured primary hepatocytes from huCETP transgenic mice, at a density of 17,500 cells per well in a 96-well plate, were transfected using cytofectin reagent with 100 nM or 200 nM antisense oligonucleotide. After approximately 24 hours, RNA was isolated from the cells and CETP mRNA levels were measured by quantitative real-time PCR. CETP mRNA transcript levels were adjusted according to total RNA content, as measured by the house-keeping gene, GAPDH mRNA levels. Results are presented in Table 6 as percent inhibition of CETP, relative to untreated control cells.

Substance | % inhibition (human CETP mRNA [1]) [%] | Percent inhibition of human CETP mRNA (human CETP mRNA [2]; 100 nM) [%] | Percent inhibition of human CETP mRNA (human CETP mRNA [2]; 200 nM) [%]
ISIS 349508: 5-10-5 MOE gapmer TCTCGAGTGATAATCTCAGG (eT*e[5mC]*eT*e[5mC]*eG*dA*dG*dT*dG*dA*dT*dA*dA*dT*d[5mC]*eT*e[5mC]*eA*eG*eG) | 24 | 76 | 86
ISIS 349462: 5-10-5 MOE gapmer ATCTGGATGTTGTGCAACCC (eA*eT*e[5mC]*eT*eG*dG*dA*dT*dG*dT*dT*dG*dT*dG*d[5mC]*eA*eA*e[5mC]*e[5mC]*e[5mC]) | 76 | 60 | 76
ISIS 349480: 5-10-5 MOE gapmer TGTCTCCATCTGAAAGGATG (eT*eG*eT*e[5mC]*eT*d[5mC]*d[5mC]*dA*dT*d[5mC]*dT*dG*dA*dA*dA*eG*eG*eA*eT*eG) | 74 | 46 | 40
ISIS 349463: 5-10-5 MOE gapmer CTGCTGGCGATGGACAAGTG (e[5mC]*eT*eG*e[5mC]*eT*dG*dG*d[5mC]*dG*dA*dT*dG*dG*dA*d[5mC]*eA*eA*eG*eT*eG) | 77 | 58 | 62
ISIS 349444: 5-10-5 MOE gapmer TCCTGGCCCCAGAGATTCAC (eT*e[5mC]*e[5mC]*eT*eG*dG*d[5mC]*d[5mC]*d[5mC]*d[5mC]*dA*dG*dA*dG*dA*eT*eT*e[5mC]*eA*e[5mC]) | 20 | 59 | 0
ISIS 349486: 5-10-5 MOE gapmer GAAAGCTACCTTGGCCAGCG (eG*eA*eA*eA*eG*d[5mC]*dT*dA*d[5mC]*d[5mC]*dT*dT*dG*dG*d[5mC]*e[5mC]*eA*eG*e[5mC]*eG) | 55 | 72 | 53
ISIS 349447: 5-10-5 MOE gapmer TATGTATGTCCGCCCAGCCC (eT*eA*eT*eG*eT*dA*dT*dG*dT*d[5mC]*d[5mC]*dG*d[5mC]*d[5mC]*d[5mC]*eA*eG*e[5mC]*e[5mC]*e[5mC]) | 15 | 57 | 28
ISIS 349446: 5-10-5 MOE gapmer GGAACATGAGGCTCTTCCGG (eG*eG*eA*eA*e[5mC]*dA*dT*dG*dA*dG*dG*d[5mC]*dT*d[5mC]*dT*eT*e[5mC]*e[5mC]*eG*eG) | 0 | 34 | 36
ISIS 349494: 5-10-5 MOE gapmer AGAATTGACCACGACTCCCT (eA*eG*eA*eA*eT*dT*dG*dA*d[5mC]*d[5mC]*dA*d[5mC]*dG*dA*d[5mC]*eT*e[5mC]*e[5mC]*e[5mC]*eT) | 41 | 85 | 57
ISIS 349514: 5-10-5 MOE gapmer ACGCTGGAGGAGACACCAGG (eA*e[5mC]*eG*e[5mC]*eT*dG*dG*dA*dG*dG*dA*dG*dA*d[5mC]*dA*e[5mC]*e[5mC]*eA*eG*eG) | 71 | 84 | 92
ISIS 349460: 5-10-5 MOE gapmer GCATCATGGCCTTCTCGCCC (eG*e[5mC]*eA*eT*e[5mC]*dA*dT*dG*dG*d[5mC]*d[5mC]*dT*dT*d[5mC]*dT*e[5mC]*eG*e[5mC]*e[5mC]*e[5mC]) | 80 | 67 | 76
ISIS 349475: 5-10-5 MOE gapmer GCTTGATCCACCCAGGCTCT (eG*e[5mC]*eT*eT*eG*dA*dT*d[5mC]*d[5mC]*dA*d[5mC]*d[5mC]*d[5mC]*dA*dG*eG*e[5mC]*eT*e[5mC]*eT) | 5 | 0 | 0
ISIS 349501: 5-10-5 MOE gapmer GCTGCTCTCAGTCAAGTTGG (eG*e[5mC]*eT*eG*e[5mC]*dT*d[5mC]*dT*d[5mC]*dA*dG*dT*d[5mC]*dA*dA*eG*eT*eT*eG*eG) | 67 | 54 | 45
ISIS 349459: 5-10-5 MOE gapmer CTTCTCGCCCGTGATATCTG (e[5mC]*eT*eT*e[5mC]*eT*d[5mC]*dG*d[5mC]*d[5mC]*d[5mC]*dG*dT*dG*dA*dT*eA*eT*e[5mC]*eT*eG) | 79 | 50 | 63
ISIS 349454: 5-10-5 MOE gapmer GTGCCTTTGGAGCAGGCATG (eG*eT*eG*e[5mC]*e[5mC]*dT*dT*dT*dG*dG*dA*dG*d[5mC]*dA*dG*eG*e[5mC]*eA*eT*eG) | 46 | 69 | 68
ISIS 349499: 5-10-5 MOE gapmer CCAAGAGGCTTAAGAAGAGC (e[5mC]*e[5mC]*eA*eA*eG*dA*dG*dG*d[5mC]*dT*dT*dA*dA*dG*dA*eA*eG*eA*eG*e[5mC]) | 55 | 80 | 80
ISIS 349455: 5-10-5 MOE gapmer CGATGCCTGCCTCGTGCGAG (e[5mC]*eG*eA*eT*eG*d[5mC]*d[5mC]*dT*dG*d[5mC]*d[5mC]*dT*d[5mC]*dG*dT*eG*e[5mC]*eG*eA*eG) | 35 | 25 | 17
ISIS 349470: 5-10-5 MOE gapmer GAGGTCAATGGCAGAGTCGA (antisense eG*eA*eG*eG*eT*d[5mC]*dA*dA*dT*dG*dG*d[5mC]*dA*dG*dA*eG*eT*e[5mC]*eG*eA) | 59 | 64 | 49
ISIS 349497: 5-10-5 MOE gapmer CCTCTTCAAATGTGTAAGCT (e[5mC]*e[5mC]*eT*e[5mC]*eT*dT*d[5mC]*dA*dA*dA*dT*dG*dT*dG*dT*eA*eA*eG*e[5mC]*eT) | 78 | 71 | 79
ISIS 349471: 5-10-5 MOE gapmer GTCAGCTGTGTGTTGATCTG (eG*eT*e[5mC]*eA*eG*d[5mC]*dT*dG*dT*dG*dT*dG*dT*dT*dG*eA*eT*e[5mC]*eT*eG) | 32 | 70 | 66
ISIS 349472: 5-10-5 MOE gapmer GCACTCTACCAGAGTCACAG (eG*e[5mC]*eA*e[5mC]*eT*d[5mC]*dT*dA*d[5mC]*d[5mC]*dA*dG*dA*dG*dT*e[5mC]*eA*e[5mC]*eA*eG) | 39 | 25 | 45
ISIS 349482: 5-10-5 MOE gapmer TGAAATGACCCTTGTGATGG (eT*eG*eA*eA*eA*dT*dG*dA*d[5mC]*d[5mC]*d[5mC]*dT*dT*dG*dT*eG*eA*eT*eG*eG) | 51 | 11 | 65
ISIS 349496: 5-10-5 MOE gapmer ACAGAATGTTGCTGGTCTGG (eA*e[5mC]*eA*eG*eA*dA*dT*dG*dT*dT*dG*d[5mC]*dT*dG*dG*eT*e[5mC]*eT*eG*eG) | 69 | 57 | 87
ISIS 349474: 5-10-5 MOE gapmer CGCTCCCCTTGGAGATGCAG (e[5mC]*eG*e[5mC]*eT*e[5mC]*d[5mC]*d[5mC]*d[5mC]*dT*dT*dG*dG*dA*dG*dA*eT*eG*e[5mC]*eA*eG) | 76 | 64 | 48
ISIS 349504: 5-10-5 MOE gapmer TGACCTCAGGGATGCCCACA (eT*eG*eA*e[5mC]*e[5mC]*dT*d[5mC]*dA*dG*dG*dG*dA*dT*dG*d[5mC]*e[5mC]*e[5mC]*eA*e[5mC]*eA) | 45 | 78 | 92
ISIS 349505: 5-10-5 MOE gapmer CACTACCTCGAGCCGAGACA (e[5mC]*eA*e[5mC]*eT*eA*d[5mC]*d[5mC]*dT*d[5mC]*dG*dA*dG*d[5mC]*d[5mC]*dG*eA*eG*eA*e[5mC]*eA) | 55 | 98 | 99

Reference: patent US20130053430A1, “MODULATION OF CETP EXPRESSION” (Isis Pharmaceuticals, Inc., priority 2010, published 2013)
